Measurements reported in patent publication US10626081B2, “Farnesoid X receptor agonists and uses thereof” (Metacrine, Inc., priority 2015, dated 2020).

Target: T1, FXR (Homo sapiens, UniProt Q96RI1)
T1 construct: expressed in transfected cells; host or cells: CV-1 cells
T1 sequence (Q96RI1 1-486): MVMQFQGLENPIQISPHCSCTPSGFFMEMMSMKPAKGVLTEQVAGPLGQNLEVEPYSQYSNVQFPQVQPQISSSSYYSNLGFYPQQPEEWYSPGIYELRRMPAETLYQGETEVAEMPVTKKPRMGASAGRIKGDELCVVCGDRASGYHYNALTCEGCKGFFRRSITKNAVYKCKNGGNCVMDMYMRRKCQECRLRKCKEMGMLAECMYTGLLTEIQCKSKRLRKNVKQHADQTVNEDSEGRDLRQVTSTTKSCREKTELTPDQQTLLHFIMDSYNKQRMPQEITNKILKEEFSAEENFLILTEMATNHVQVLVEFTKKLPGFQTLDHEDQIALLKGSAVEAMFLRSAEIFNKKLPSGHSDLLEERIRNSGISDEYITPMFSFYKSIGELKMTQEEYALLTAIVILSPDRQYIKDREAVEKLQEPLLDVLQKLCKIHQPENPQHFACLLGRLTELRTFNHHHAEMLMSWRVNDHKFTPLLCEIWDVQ
T1 sequence (P19793 1-462 partner): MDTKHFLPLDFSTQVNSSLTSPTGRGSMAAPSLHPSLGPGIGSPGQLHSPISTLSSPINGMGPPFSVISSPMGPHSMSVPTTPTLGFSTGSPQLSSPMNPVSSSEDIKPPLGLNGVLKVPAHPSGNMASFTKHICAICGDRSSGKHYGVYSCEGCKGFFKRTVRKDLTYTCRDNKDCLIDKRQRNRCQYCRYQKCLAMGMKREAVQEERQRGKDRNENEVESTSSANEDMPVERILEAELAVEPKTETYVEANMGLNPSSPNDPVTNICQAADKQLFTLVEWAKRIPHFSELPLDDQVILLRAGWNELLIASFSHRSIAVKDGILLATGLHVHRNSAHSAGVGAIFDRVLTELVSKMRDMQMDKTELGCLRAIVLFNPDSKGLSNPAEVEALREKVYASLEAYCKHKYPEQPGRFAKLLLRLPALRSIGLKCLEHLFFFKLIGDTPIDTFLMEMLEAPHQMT
Assay: In Vitro FXR Assay (PGL3): luciferase reporter in transfected CV-1 cells
Assay type: cell-based
Conditions: CV-1 cells transfected with hFXR, hRXR, PGL3-ECRE*6-luc; 18 h incubation; luminescence
Procedure: Example B-1: In Vitro FXR Assay (PGL3)
CV-1 cells were seeded at a density of 2,000,000 cells in a T175 flask with DMEM+10% charcoal double-stripped FBS and incubated at 37° C. in a 5% CO2 for 18 h (O/N).
After 18 h of incubation, the medium in the T175 flask was changed with fresh DMEM+10% charcoal super-stripped serum.
To prepare the transfection reaction mixture, the transfection reagent (X-tremeGENE HP from Roche, Cat #06 366 236 001) was added in to a 1.5 mL microcentrifuge tube labelled “A” at a ratio of 1:3 (DNA in transfection reagent in μL). OptiMEM medium (Life Technologies, Cat #31985-062) was added accordingly to provide a total volume of 1 mL. The transfection reaction mixture was then briefly vortexed and incubated at room temperature for 5 minutes.
In a separate 1.5 mL microcentrifuge tube labelled “B”, 100 μL OptiMEM and plasmids XPD90Gal pCMXhFXRfl, pCMXhRXRfl+PGL3-ECRE*6-luc+CMX-YFP in the ratio 2 μg:2 μg:18 μg:3 μg were added. This microcentrifuge tube “B” was then briefly vortexed and incubated at room temperature for 5 minutes.
The total volume in tube labelled “A” was then transferred in to tube labelled “B.” The mixture was then briefly vortexed and the transfection:DNA complex was then incubated for about 15-20 minutes at room temperature.
Following incubation, the transfection reagent/DNA mixture complex was then added to cells in the T175 flask and the cells were incubated at […] (O/N) at 37° C. in 5% CO2.
In a 96 well plate, a half logarithmic serial dilution was prepared. OptiMEM was used as the diluent. Using any of one of the compounds described herein, a compound stock solution of 10 mM was prepared. An initial 1:100 dilution was made into the first well for a final concentration of 100 μM. The final concentrations in the 96-well plate was prepared by using a multichannel pipette to transfer 5 μL of the diluted compound to 384-well plate in quadruplicate.
Cells in T175 flask were trypsinized and cells were resuspended in 40 mL phenol red free DMEM+10% charcoal super-stripped FBS. Typically, one T175 flask was sufficient to seed two 384 well plates. CV-1 cells were seeded at 45 μL cell suspension/well using a multi-channel pipet or a 384 multidrop dispenser. The cells were then incubated for 18 hrs, overnight.
After removing the plates from the incubator, the medium was flicked out of plate and 384 well plate was turned upside down onto paper towel. The remaining medium was gently tapped out. 15 μL lysis buffer was then added to each well using a multichannel pipet or a 384 well multi-drop dispenser. After incubation for 10 minutes at room temperature on shaker, 30 μL Luciferase buffer was added to each well. Luminescence counts were taken immediately using the Perkin Elmer Envision.
The ability of the compounds disclosed herein to […] FXR activity was quantified and the respective EC50 value was determined. Fex=fexaramine.

Row | Cmpd/Fex (ratio of the EC50 for the test compound relative to the EC50 of the Fexaramine control) | Compound
1 | +++ (‘+++’ means Cmpd/Fex < 10) | COC(=O)/C=C/c1cccc(N(Cc2ccc(-c3ccc(N(C)C)cc3)cc2)C(=O)C(C)(C)C)c1 [compound 1, (E)-Methyl 3-(3-(N-((4′-(dimethylamino)-[1,1′-biphenyl]-4-yl)methyl)pivalamido)phenyl)acrylate]
2 | + (‘+’ means Cmpd/Fex > 100) | COC(=O)/C=C/c1cccc(N(Cc2ccc(N3CCN(C)CC3)cc2)C(=O)C2CCCCC2)c1 [compound 76, (E)-Methyl 3-(3-(N-(4-(4-methylpiperazin-1-yl)benzyl)cyclohexanecarboxamido)phenyl) acrylate]
3 | + (‘+’ means Cmpd/Fex > 100) | COC(=O)/C=C/c1cccc(N(Cc2ccc(N3CCNCC3)cc2)C(=O)C2CCCCC2)c1 [compound 79, (E)-Methyl 3-(3-(N-(4-(piperazin-1-yl)benzyl)cyclohexanecarboxamido)phenyl) acrylate]

Target: T1, FXR
Assay: In Vitro FXR Assay (TK): TK-ECRE-luc reporter in transfected CV-1 cells
Assay type: cell-based
Conditions: CV-1 cells transfected with hFXR, hRXR, 18 h incubation, luminescence
How it was run: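 Luciferase read-out from lysed CV-1 cells exposed 18 h to DMSO-diluted compounds. Cells had been transfected overnight with expression plasmids for hFXR and hRXR plus TK-ECRE-luc reporter and pCMX-YFP, grown in charcoal-stripped serum at 37 °C, 5% CO2.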

Row | EC50 [nM] | Compound
4 | > 10000 | CN(C)c1ccc(-c2ccc(CN(C(=O)C3CCCCC3)c3cccc(/C=C/C(=O)OCc4ccccc4)c3)cc2)cc1 [86.7, (E)-Benzyl 3-(3-(N-((4′-(dimethylamino)-[1,1′-biphenyl]-4-yl)methyl)cyclohexanecarboxamido)phenyl) acrylate]
5 | 1000 to 10000 | COC(=O)/C=C/c1cc(OC)cc(N(Cc2ccc(-c3ccc(N(C)C)cc3)cc2)C(=O)C2CCCCC2)c1 [86.8, (E)-Methyl 3-(3-(N-((4′-(dimethylamino)-[1,1′-biphenyl]-4-yl)methyl)cyclohexanecarboxamido)-5-methoxyphenyl)acrylate]
6 | 1000 to 10000 | COC(=O)/C=C/c1cc(C#N)cc(N(Cc2ccc(-c3ccc(N(C)C)cc3)cc2)C(=O)C2CCCCC2)c1 [86.9, (E)-Methyl 3-(3-cyano-5-(N-((4′-(dimethylamino)-[1,1′-biphenyl]-4-yl)methyl)cyclohexanecarboxamido)phenyl) acrylate]
7 | ≤ 1000 | COC(=O)/C=C/c1cc(Cl)cc(N(Cc2ccc(-c3ccc(N(C)C)cc3)cc2)C(=O)C2CCCCC2)c1 [86.10, (E)-Methyl 3-(3-chloro-5-(N-((4′-(dimethylamino)-[1,1′-biphenyl]-4-yl)methyl)cyclohexanecarboxamido)phenyl) acrylate]
8 | 1000 to 10000 | COC(=O)/C=C/c1cc(N(Cc2ccc(-c3ccc(N(C)C)cc3)cc2)C(=O)C2CCCCC2)cc(C(F)(F)F)c1 [86.11, (E)-Methyl 3-(3-(N-((4′-(dimethylamino)-[1,1′-biphenyl]-4-yl)methyl)cyclohexanecarboxamido)-5-(trifluoromethyl)phenyl)acrylate]
9 | ≤ 1000 | COC(=O)/C=C/c1cccc(N(Cc2ccc(-c3ccc(N(C)C)cc3)cc2)C(=O)[C@H]2CC[C@H](NC(C)=O)CC2)c1 [98.1, trans-(E)-Methyl 3-(3-(4-acetamido-N-((4′-(dimethylamino)-[1,1′-biphenyl]-4-yl)methyl)cyclohexanecarboxamido)phenyl)acrylate]
10 | ≤ 1000 | COC(=O)/C=C/c1cccc(N(Cc2ccc(-c3ccc(N(C)C)cc3)cc2)C(=O)[C@H]2CC[C@H](NS(C)(=O)=O)CC2)c1 [98.2, trans-(E)-Methyl 3-(3-(N-((4′-(dimethylamino)-[1,1′-biphenyl]-4-yl)methyl)-4-(methylsulfonamido)cyclohexane-carboxamido)phenyl)acrylate]
11 | 1000 to 10000 | COC(=O)/C=C/c1cccc(N(Cc2ccc(-c3ccc(N(C)C)cc3)cc2)C(=O)C(C)(C)C)c1 [compound 1, (E)-Methyl 3-(3-(N-((4′-(dimethylamino)-[1,1′-biphenyl]-4-yl)methyl)pivalamido)phenyl)acrylate]
12 | ≤ 1000 | COC(=O)/C=C/c1cccc(N(Cc2ccc(-c3ccc(N(C)C)cc3)cc2)C(=O)C2CCC(=O)CC2)c1 [compound 17, (E)-Methyl 3-(3-(N-((4′-(dimethylamino)-[1,1′-biphenyl]-4-yl)methyl)-4-oxocyclohexanecarboxamido)phenyl)acrylate]
13 | > 10000 | COC(=O)/C=C/c1cccc(N(Cc2ccc(-c3ccc(N(C)C)cc3)cc2)C(=O)[C@H]2CC[C@H](N)CC2)c1 [compound 97, (E)-Methyl 3-(3-(trans-4-amino-N-((4′-(dimethylamino)-[1,1′-biphenyl]-4-yl)methyl)cyclohexanecarboxamido)phenyl) acrylate]
14 | ≤ 1000 | COC(=O)/C=C/c1cccc(N(Cc2ccc(-c3ccc(N(C)C)cc3)cc2)C(=O)[C@H]2CC[C@H](NC(=O)OC)CC2)c1 [compound 98, (E)-Methyl 3-(3-(trans-N-((4′-(dimethylamino)-[1,1′-biphenyl]-4-yl)methyl)-4-((methoxycarbonyl)amino)cyclo-hexanecarboxamido)phenyl)acrylate]
15 | > 10000 | CC(C)=CCc1cccc(N(Cc2ccc(-c3ccc(N(C)C)cc3)cc2)C(=O)C2CCCCC2)c1 [compound 99, N-((4′-(Dimethylamino)-[1,1′-biphenyl]-4-yl)methyl)-N-(3-(3-methylbut-2-en-1-yl)phenyl) cyclohexanecarboxamide]
16 | 1000 to 10000 | COC(=O)/C=C/c1cccc(N(Cc2ccc(NC(=O)c3ccccc3)cc2)C(=O)C2CCCCC2)c1 [compound 100, (E)-Methyl 3-(3-(N-(4-benzamidobenzyl)cyclohexanecarboxamido)phenyl)acrylate]
17 | > 10000 | COC(=O)/C=C/c1cccc(N(Cc2ccc(N(C)C(=O)c3ccccc3)cc2)C(=O)C2CCCCC2)c1 [compound 101, (E)-Methyl 3-(3-(N-(4-(N-methylbenzamido)benzyl)cyclohexane-carboxamido)phenyl)acrylate]
18 | 1000 to 10000 | COC(=O)/C=C/c1cccc(N(Cc2ccc(NCc3ccccc3)cc2)C(=O)C2CCCCC2)c1 [compound 102, (E)-Methyl 3-(3-(N-(4-(benzylamino)benzyl)cyclohexane-carboxamido)phenyl)acrylate]
19 | > 10000 | COC(=O)/C=C/c1cccc(N(Cc2ccc(N(C)Cc3ccccc3)cc2)C(=O)C2CCCCC2)c1 [compound 103, (E)-Methyl 3-(3-(N-(4-(benzyl(methyl)amino)benzyl)cyclo-hexanecarboxamido)phenyl)acrylate]

Row | Compound | EC50 [nM]
20 | COC(=O)/C=C/c1cccc(N(Cc2ccc(-c3ccc(N(C)C)cc3)cc2)C(=O)[C@H]2CC[C@H](NC(=O)OC(C)(C)C)CC2)c1 [compound 96, (E)-Methyl 3-(3-(trans-4-((tert-butoxycarbonyl)amino)-N-((4′-(dimethylamino)-[1,1′-biphenyl]-4-yl)methyl)cyclohexanecarboxamido)phenyl) acrylate] | ≤ 1000
